Data reported in article PMC12528394, “Screening and evaluation of therapeutic candidates with vascular protective effects in zebrafish models of diabetic retinopathy” (Scientific Reports, 2025).

Key:
Type in all cases: in vivo
[1] = tested on: zebrafish DR model; experiment: Zebrafish diabetic retinopathy model (130 mM glucose): survival and hyaloid-retinal vessel diameter; details: 100 µg/ml, 3 to 6 dpf, n = 40 per group
Experimental: On day 3 post-fertilization, zebrafish embryos with normal differentiation were treated with 130 mM glucose in a 24-well plate (5 embryos per well) to induce a diabetic retinopathy model. Peptides 1, 2, and 3 were administered at concentrations of 20, 100, 200, and 400 µg/ml. On day 6 post-fertilization, embryos were fixed with 4% paraformaldehyde and the hyaloid-retina vessels were isolated. Further experimental details can be found in previous studies.

[2] = tested on: Angiopoietin-1; experiment: RT-PCR mRNA expression in zebrafish DR model; details: 100 µg/ml, 130 mM glucose, eyes at 6 dpf, RT-PCR normalized to GAPDH, triplicate
Experimental: (§1) The total RNA were extracted from the eyes at 6 dpf using the mRNA kit (PureLink™ RNA Mini Kit, Ambion). The mRNA was measured with a NanoDrop spectrophotometer (Thermo Scientific, Madison, WI, USA) for quantitative analysis and a cDNA synthesis with a SuperScript VILO cDNA Synthesis Kit (Thermo Scientific, Carlsbad, CA, USA). The cDNA was amplified by PCR with zebrafish primer GAPDH, VEGF, Tie2 and Ang-1 with SYBR Green Master Mix (Thermo Scientific, Carlsbad, CA, USA). The mRNA was detected by ViiA7 Real-Time PCR system (Thermo Scientific, Carlsbad, CA, USA). The values were normalized to GAPDH expression. Samples were analyzed in triplicate.

[3] = tested on: VEGF; experiment: RT-PCR mRNA expression in zebrafish DR model; details: 100 µg/ml, 130 mM glucose, eyes at 6 dpf, RT-PCR normalized to GAPDH, triplicate
Experimental: as §1

[4] = tested on: Tie2; experiment: RT-PCR mRNA expression in zebrafish DR model; details: 100 µg/ml, 130 mM glucose, eyes at 6 dpf, RT-PCR normalized to GAPDH, triplicate
Experimental: as §1

aflibercept was tested, and the “retinal vessel thickness relative to glucose-only group (in words)” value [1] was “effectively reduced”, the “Angiopoietin-1 mRNA level versus high-glucose group (in words)” value [2] was “partially restored” and the “VEGF mRNA level versus high-glucose group (in words)” value [3] was “significantly reduced”. The “Tie2 mRNA level versus high-glucose group (in words)” value [4] was “partially restored”.
